Source: US20050036962A1, “Compositions and method for protecting skin from UV induced immunosuppression and skin damage” (Novogen Research Pty. Ltd., priority 1997, published 2005)

How the values were obtained:
[1] = tested on: Hairless albino Sh:HR-1 mice; assay: Contact hypersensitivity (CHS) reaction to oxazolone after UV irradiation, Example 2; format: in vivo, mouse; conditions: for % Suppression of CHS: UV-irradiated vs non-UV group, lotion 20 μM compound (glucan 10% w/w in lotion B; clover extract 0.5% w/w), topical after each daily UV; for prevention/amelioration of UV induced immunosuppression (in words): topical lotion after UV, CHS model
From the text: O'Dell et al (1980 Arch. Dermatol, 116, 559-561) have shown that sun-exposed skin areas on humans are immunologically impaired according to non-exposed skin. A standard model for testing immunosuppression, that is a model with reference to human immunosuppression, is the hairless mouse. A standard test in the hairless mouse model is the contact hypersensitivity (CHS) reaction to an immune irritant such as oxazolone (Asherson and Ptak, Immunology, (1968) 15:405-416). The compound oxazolone induces a vigorous immune response in the hairless mouse which may be measured by ear swelling. Immune suppression by UV light or other agents can be readily tested in the model. See for example Kondo, S, McKenzie, R. C., Sauder, D. N., J. Invest. Dermatol., 103:811-814; Reeve et al, Cancer Letts., 108:271-279 (1996); and Reeve et al, J. Invest. Dermatol., 103:801-806 (1994). As will be shown in the non-limiting examples which follow, compositions comprising compounds of the Formula (I) were active in the treatment/prevention/amelioration of UV induced immunosuppression in the hairless mouse model, which as discussed above is directly referable to the situation in human skin, for example, Yoshikawa et al, J. Invest. Dermatol., 95:530-536, (1990).
The CHS reaction in mice is a standard model for immunosuppression and is a representative model for human immunosuppression (Yoshikawa et al, Invest. Dermatol., 95:530-536 (1990)).
(§1) The CHS reaction was carried out according to the protocol of Reeve et al, Immunology, 78:99-104 (1993). Hairless albino Sh:HR-1 mice were divided into two treatment groups. The first treatment group designated group 1 was not subject to UV irradiation, and received either 0.2 ml of test lotion “A” or test lotion ‘B’ painted on to the dorsal skin on four consecutive days (that is, 4 μmol/mouse, or approximately 0.1 μmol/cm^2). The second treatment group, group 2, were UV irradiated with a minimal erythemal dose of UV light which simulates the toxic effect of sunlight on the skin. After each daily UV treatment 0.2 ml of treatment solution was applied to the dorsal skin as for treatment group 1. Mid-dorsal skinfold thickness was measured every twenty four hours to indicate erythema oedema. CHS to oxazolone was induced on abdominal skin seven days after the first treatment followed by challenge on the ears on day 15, and average ear swelling was determined as a measure of immune response.
Genistein, daidzein, equol, tetrahydrodaidzein, ODMA, dehydroequol and clover extract were tested in this experiment in test lotion “A”. Equol, genistein and clover extract were also tested in tes lotion ‘B’. The results expressed below are given as a percentage of suppression of CHS measured with reference to the non-UV exposed treatment group 1, which is induced by UV exposure.

[2] = tested on: Hairless albino Sh:HR-1 mice; assay: Mid-dorsal skinfold thickness (erythema/oedema) after UV irradiation, Example 2; format: in vivo, mouse; conditions: for average skin fold increase / negative average skin fold increase: seven days after treatment; for average skin fold increase: one unit = 0.001 in, test lotion A; for erythema/oedema (in words): measured at day four and day seven; for negative average skin fold increase: given as a negative increase, substantially no increase in skin fold thickness
Protocol: as §1
Erythema/oedema was measured at day four and day seven of the treatment groups. […] For example, at seven days after treatment for base lotion “A” average skin fold thickness was six units (that is 0.006 in), for the daidzein containing lotion average skin fold increase was seven units, and for tetrahydrodaidzein average skin fold thickness was five units. In contrast, for equol, genistein, dehydroequol and ODMA there was a negative average skin fold increase of approximately 0.2, which corresponds to substantially no increase in skin fold thickness.

[3] = tested on: Human subjects; assay: Erythema intensity at UV-irradiated skin sites on the back, post-UV topical lotion, Example 3; format: in vivo; conditions: UV + lotion with 100 μM equol
Protocol: Tests were performed at the Australian Photobiology Testing Facility at the University of Sydney. Human subjects were tested in a controlled solarium. A grid was established using reference coordinate points on the back of each subject, thereby providing a series of treatment sites on the back of each patient where the erythema-reducing potential of compositions according to the invention could be tested.
Compounds of the Formula (I) were dissolved in DMSO and incorporated into base lotion “A” to contain 100 μM of active ingredient, and 0.5% DMSO.
Topical applications were made to the back of the patient within the treatment grid which was established to provide a series of sites for UV irradiation, and subsequent application of compositions. Topical application consisted of 2 mg/cm^2 lotion applied firmly, followed by a second 2 mg/cm^2 applied but not rubbed in. Each topical treatment was therefore 0.4 nmols/cm^2 compound in the Formula (I).
The treatment procedure was as follows. On the first day of treatment a minimum erythemal dose of UV (MED) was established for each subject, this being the minimum degree of UV light which on visual determination produces a reddening of the skin. […] The first treatment day was a Monday. Subsequent treatments were as follows:
Expose 3×3 skin sites to 0.75 MED UV.
Immediately, at four hours and at six hours post-UV, • 1 apply nil to three sites • 2 apply topical base lotion to three sites • 3 apply topical equol lotion to three sites according to technique above. Wednesday
Assess erythema (none visible as expected).
Re-expose same 3×3 skin sites to 0.75 MED UV.
Immediately, at four hours and at six hours post-UV, apply topical lotions as above.
Assess erythema visually by ranking the colour intensity of the 3×3 skin sites.
Re-expose same 3×3 skin sites to one MED UV.
Topical applications as before

[4] = tested on: Hairless albino Sh:HR-1 mice; assay: CHS reaction to oxazolone after UVB irradiation, equol/glucan lotions, Example 4; format: in vivo, mouse; conditions: for % Suppression of CHS: 1 MED (UVB) for 3 days, equol 2.5 uM, glucan 20% in base lotion, ears measured day 15; for decreasing percentage suppression of hypersensitivity and skin fold thickness (in words): compared to the control groups
Protocol: The CHS reaction was carried out as in Example 2. Hairless albino Sh:HR-1 mice were divided into eight treatment groups as shown: • 1. base lotion+MED (UVB) for […] • 2. glucan (20%) in base lotion+1 MED (UVB) for 3 days • 3. Equol (2.5 uM) in base lotion+1 MED (UVB) for 3 days • 4. Equol (2.5 uM)+glucan (20%) in base lotion+1 MED (UVB) for 3 days • 5. base lotion and no irradiation for three days (Control) • 6. glucan (20%) in base lotion and no irradiation for three days (Control) • 7. Equol (2.5 uM) in base lotion and no irradiation for three days (Control) • 8. Equol (2.5 uM)+glucan (20%) in base lotion and no irradiation for three days (Control)
On days 7 and 8 the mice were sensitised with 2% oxazolone in alcohol (100 ul/mouse). On day 14, the ears were challenged with 2% oxazolone (20 ul/mouse). On day 15, the ears were measured for skin fold thickness and suppression of […] hypersensitivity.

| Molecule | % Suppression of CHS ([1]; 18 hours of ear challenge) | % Suppression of CHS ([1]; 21 hours of ear challenge) | prevention/amelioration of UV induced immunosuppression (in words) [1] | negative average skin fold increase [2] | also measured |
| --- | --- | --- | --- | --- | --- |
| O=c1c(-c2ccc(O)cc2)coc2cc(O)ccc12 [Daidzein, daidzein] | 27% | 37% | did not ameliorate | – | average skin fold increase [2]: seven |
| Oc1ccc([C@H]2COc3cc(O)ccc3C2)cc1 [Equol, equol] | 12% | 5% | significant activity | approximately 0.2 | erythema/oedema (in words) [2]: suppressed erythema/oedema; Average erythema intensity (n = 3) ([3]; 48 hours, 0.4 nmols/cm^2 per application): 0.21; Average erythema intensity (n = 3) ([3]; 52 hours): 0.21; Average erythema intensity (n = 3) ([3]; 55.5 hours): 0.67; Average erythema intensity (n = 3) ([3]; 71 hours): 0.67; Average erythema intensity (n = 3) ([3]; 75 hours): 0.38; Average erythema intensity (n = 3) ([3]; 77 hours): 0.54; % Suppression of CHS [4]: 6%; decreasing percentage suppression of hypersensitivity and skin fold thickness (in words) [4]: effective |
| O=c1c(-c2ccc(O)cc2)coc2cc(O)cc(O)c12 [Genistein, genistein] | 14% | 13% | significant activity | approximately 0.2 | erythema/oedema (in words) [2]: suppressed erythema/oedema |
| CC(C(=O)c1ccc(O)cc1O)c1ccc(O)cc1 (stereo not drawn) [ODMA, O-desmethyl-angolensin] | – | – | – | approximately 0.2 | – |
| Oc1ccc(C2=Cc3ccc(O)cc3OC2)cc1 [dehydroequol] | 10% | 4% | significant activity | approximately 0.2 | – |
| Oc1ccc(C2COc3cc(O)ccc3C2O)cc1 (stereo not drawn) [tetrahydrodaidzein] | 33% | 31% | did not ameliorate | – | average skin fold increase [2]: five |
| β-(1,3)(1,6)-glucan [Glucan only] | – | – | – | – | % Suppression of CHS [4]: 4.5%; decreasing percentage suppression of hypersensitivity and skin fold thickness (in words) [4]: effective |
